{"source": "paper PMC7271289", "about": "“Anti-Inflammatory and Anticoagulant Activities of Synthesized NSAID Prodrug Esters” (Scientifica, 2020)", "key": {"COX2 [1]": {"molecular_target": "T1, COX2 (Homo sapiens, UniProt P35354)", "T1 construct": "purchased Cayman Chemical, USA 560131", "T1 sequence (P35354 18-604)": "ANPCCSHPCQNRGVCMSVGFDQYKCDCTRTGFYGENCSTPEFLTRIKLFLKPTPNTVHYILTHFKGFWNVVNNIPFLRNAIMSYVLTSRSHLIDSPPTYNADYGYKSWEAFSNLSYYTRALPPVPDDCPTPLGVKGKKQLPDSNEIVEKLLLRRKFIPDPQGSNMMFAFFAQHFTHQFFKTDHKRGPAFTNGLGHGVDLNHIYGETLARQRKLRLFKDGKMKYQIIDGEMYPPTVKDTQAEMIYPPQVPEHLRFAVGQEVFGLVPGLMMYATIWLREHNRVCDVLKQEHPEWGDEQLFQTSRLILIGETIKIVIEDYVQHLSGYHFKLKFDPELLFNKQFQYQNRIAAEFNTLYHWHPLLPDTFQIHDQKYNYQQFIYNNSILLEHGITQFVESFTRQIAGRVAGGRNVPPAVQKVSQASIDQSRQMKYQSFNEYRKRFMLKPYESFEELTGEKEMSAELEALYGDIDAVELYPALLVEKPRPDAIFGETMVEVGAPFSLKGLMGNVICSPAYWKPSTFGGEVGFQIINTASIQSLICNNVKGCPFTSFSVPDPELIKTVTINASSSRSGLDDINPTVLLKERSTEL", "assay": "biochemical", "procedure": "IR (infrared) spectra were done using FTIR (Thermo Fisher Nicolet IS5). […] Nuclear magnetic resonance (NMR) spectra were obtained using the Bruker Avance (300 MHz) spectrometer, micropipettes (Finnpipette, Finland), incubator (Nuve, Turkey), syringe filter 0.45 μm pore size (Microlab, China), microbroth plate (Greiner bio-one, North America), and LABiTec (Germany) for PT and aPTT tests.\nThe plate is washed with a buffer solution, and Ellman's reagent, which contains the substrate of acetylcholinesterase, is added to the well. […] The anti-inflammatory effect of the tested compounds was evaluated by calculating the percentage inhibition of PGE2 production."}, "COX1 [2]": {"molecular_target": "T2, COX1 (Ovis aries, UniProt P05979)", "T2 sequence (P05979 25-600)": "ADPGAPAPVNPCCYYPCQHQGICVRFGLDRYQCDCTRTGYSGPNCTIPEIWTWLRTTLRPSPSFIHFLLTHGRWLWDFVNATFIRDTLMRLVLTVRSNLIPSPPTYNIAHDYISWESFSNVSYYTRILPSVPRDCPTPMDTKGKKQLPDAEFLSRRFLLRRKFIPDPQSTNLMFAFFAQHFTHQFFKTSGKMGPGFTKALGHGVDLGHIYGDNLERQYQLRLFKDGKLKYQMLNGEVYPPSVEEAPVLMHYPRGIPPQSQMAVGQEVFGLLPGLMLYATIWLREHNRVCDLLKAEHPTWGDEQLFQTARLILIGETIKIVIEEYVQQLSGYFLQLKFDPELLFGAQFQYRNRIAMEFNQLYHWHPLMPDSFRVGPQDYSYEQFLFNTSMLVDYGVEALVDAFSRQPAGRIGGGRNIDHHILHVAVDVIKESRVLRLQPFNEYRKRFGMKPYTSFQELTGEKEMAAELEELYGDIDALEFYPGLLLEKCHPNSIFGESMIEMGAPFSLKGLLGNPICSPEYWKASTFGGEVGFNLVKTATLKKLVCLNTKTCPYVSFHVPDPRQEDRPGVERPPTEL", "assay": "COX inhibitor screening assay kit (Cayman No. 560131), COX1", "format": "biochemical", "design": "purchased Cayman Chemical, USA 560131", "conditions": "for IC50: ELISA kit, calculated from percentage inhibition of PGE2 production, read-out: IC50 for COX1 enzyme (converted)", "procedure": "The instrumentation used in this project includes magnetic stirrer and heater (LM-1003), weighing balance (Adventurer-OHAVS-AR2140), and rotaevaporator (Heidolph-OB2000). IR (infrared) spectra were done using FTIR (Thermo Fisher Nicolet IS5). The UV-VIS spectra were done using the JENWAY-7315 spectrophotometer. Nuclear magnetic resonance (NMR) spectra were obtained using the Bruker Avance (300 MHz) spectrometer, micropipettes (Finnpipette, Finland), incubator (Nuve, Turkey), syringe filter 0.45 μm pore size (Microlab, China), microbroth plate (Greiner bio-one, North America), and LABiTec (Germany) for PT and aPTT tests. The Cyclooxygenase (COX) enzyme inhibition test was performed using COX inhibitor screening assay kit No. 560131 Cayman Chemical, USA and was read by Elisaplate Reader (BioRad, Japan).\nCOX1 and COX2 inhibition activities were determined using a COX inhibitor screening assay kit No. 560131 by Cayman Chemical, USA. The plate is washed with a buffer solution, and Ellman's reagent, which contains the substrate of acetylcholinesterase, is added to the well. The yellow product of this enzymatic reaction is determined spectrophotometrically in a microplate reader (BioRad, Japan) at 415 nm. […]. The anti-inflammatory effect of the tested compounds was evaluated by calculating the percentage inhibition of PGE2 production."}, "[3]": {"tested_on": "platelet poor citrated plasma", "assay": "Activated partial thromboplastin time (aPTT) test", "format": "biochemical, human", "conditions": "drug sample 3000 mg/L; for aPTT Average ± SD: average of three volunteers; for aPTT: equal volume with plasma, 5 min at 37°C", "procedure": "(§1) PT and aPTT tests were carried out simultaneously. Blood samples from three healthy volunteers were collected in sodium citrated blood tubes (Vacutainer, BD). Blood samples were then centrifuged for 15 min at 1500 rpm to prepare platelet poor citrated plasma. The LABiTec (Germany) apparatus was used for the determination of PT and aPTT. Equal volumes of drug samples (3000 mg/L) and platelet-depleted plasma were incubated for 5 min at 37°C. The PT test was performed as follows: a 100 μl of tissue thromboplastin (HUMAN) was added to 50 μl of prewarmed mixture, and clotting time was measured. For the aPTT test, 50 μl of rabbit brain extract was added to equal volume of the prewarmed platelet poor plasma-extract mixture incubated for 1 minute after which 50 μl of 0.025 M calcium chloride (HUMAN) was added and clotting time was measured; PBS was used as control."}, "[4]": {"tested_on": "platelet poor citrated plasma", "assay": "Prothrombin time (PT) test", "format": "biochemical, human", "conditions": "drug sample 3000 mg/L; for PT Average ± SD: average of three volunteers; for PT: equal volume with plasma, 5 min at 37°C", "procedure": "as §1"}, "COX1 [5]": {"molecular_target": "T2, COX1", "conditions": "previous published literature; cited from earlier work"}, "COX2 [6]": {"molecular_target": "T1, COX2", "conditions": "previous published literature; read-out: inhibition activity for COX2 enzyme (converted); cited from earlier work"}}, "note": "pIC50: −log10 of the molar value. Where two headings read alike, the source gives them in different places.", "data": [{"compound": "COc1ccc2cc([C@H](C)C(=O)Oc3ccc(NC(C)=O)cc3)ccc2c1", "note": "[Nap-Para ester]", "values": [{"measurement": "pIC50", "setting": "COX2 [1]", "result": 5.28}, {"measurement": "IC50", "setting": "COX1 [2]", "result": 4.13, "unit": "µM"}, {"measurement": "aPTT Average ± SD", "setting": "[3]", "result": "69.9 ± 8.79", "unit": "s"}, {"measurement": "aPTT Average ± SD", "setting": "[3]; listed as naproxen-paracetamol ester", "result": "69.9 ± 7.7", "unit": "s"}, {"measurement": "aPTT", "setting": "[3]; volunteer 1", "result": 78.2, "unit": "s"}, {"measurement": "aPTT", "setting": "[3]; volunteer 2", "result": 70.9, "unit": "s"}, {"measurement": "aPTT", "setting": "[3]; volunteer 3", "result": 60.7, "unit": "s"}, {"measurement": "PT Average ± SD", "setting": "[4]", "result": "21.8 ± 2.86", "unit": "s"}, {"measurement": "PT", "setting": "[4]; volunteer 1", "result": 20.4, "unit": "s"}, {"measurement": "PT", "setting": "[4]; volunteer 2", "result": 19.9, "unit": "s"}, {"measurement": "PT", "setting": "[4]; volunteer 3", "result": 25.1, "unit": "s"}]}, {"compound": "CC(=O)Nc1ccc(O)cc1", "note": "[Paracetamol, reference compound]", "values": [{"measurement": "aPTT Average ± SD", "setting": "[3]", "result": "72 ± 8.7", "unit": "s"}, {"measurement": "aPTT", "setting": "[3]; volunteer 1", "result": 73.1, "unit": "s"}, {"measurement": "aPTT", "setting": "[3]; volunteer 2", "result": 62.8, "unit": "s"}, {"measurement": "aPTT", "setting": "[3]; volunteer 3", "result": 80.2, "unit": "s"}, {"measurement": "PT Average ± SD", "setting": "[4]", "result": "21.7 ± 4.52", "unit": "s"}, {"measurement": "PT", "setting": "[4]; volunteer 1", "result": 18.5, "unit": "s"}, {"measurement": "PT", "setting": "[4]; volunteer 2", "result": 19.4, "unit": "s"}, {"measurement": "PT", "setting": "[4]; volunteer 3", "result": 27.1, "unit": "s"}, {"measurement": "inhibition activity for COX1 enzyme", "setting": "COX1 [5]", "result": "less IC50 inhibition activity"}]}, {"compound": "CC(=O)Nc1ccc(OC(=O)C(C)c2ccc(CC(C)C)cc2)cc1", "note": "(stereo not drawn) [Ibu-Para ester, 4-Acetamidophenyl 2-(4-isobutylphenyl) propanoate]", "values": [{"measurement": "IC50", "setting": "COX2 [1]; ELISA kit, calculated from percentage inhibition of PGE2 production, read-out: IC50 for COX2 enzyme (converted)", "result": 6.5, "unit": "µM"}, {"measurement": "IC50", "setting": "COX1 [2]", "result": 1.56, "unit": "µM"}, {"measurement": "selectivity COX1 versus COX2", "setting": "COX1 [2]; comparison of the COX1 and COX2 IC50", "result": "more selective towards COX1"}, {"measurement": "aPTT Average ± SD", "setting": "[3]", "result": "71 ± 0.9", "unit": "s"}, {"measurement": "aPTT", "setting": "[3]; volunteer 1", "result": 71.2, "unit": "s"}, {"measurement": "aPTT", "setting": "[3]; volunteer 2", "result": 71.8, "unit": "s"}, {"measurement": "aPTT", "setting": "[3]; volunteer 3", "result": 70, "unit": "s"}, {"measurement": "PT Average ± SD", "setting": "[4]", "result": "23.8 ± 6.08", "unit": "s"}, {"measurement": "PT", "setting": "[4]; volunteer 1", "result": 19.8, "unit": "s"}, {"measurement": "PT", "setting": "[4]; volunteer 2", "result": 20.8, "unit": "s"}, {"measurement": "PT", "setting": "[4]; volunteer 3", "result": 30.8, "unit": "s"}]}, {"compound": "COc1ccc2cc([C@H](C)C(=O)O)ccc2c1", "note": "[Naproxen]", "values": [{"measurement": "IC50", "setting": "COX2 [6]", "result": 5.65, "unit": "µM"}]}, {"compound": "CC(C)Cc1ccc(C(C)C(=O)O)cc1", "note": "(stereo not drawn) [Ibuprofen, reference compound]", "values": [{"measurement": "PT Average ± SD", "setting": "[4]", "result": "21.3 ± 3.3", "unit": "s"}]}]}
